The values that follow come from patent publication US7199099B2, “Methanobactin: a copper binding compound having antibiotic and antioxidant activity isolated from methanotrophic bacteria” (priority 2002, dated 2007).

The format of data set [1] is physicochemical. The source says: Solution properties of the methanobactin varied with metal binding and pH.
The subject of another data set is gram-negative bacteria. The data set is described as follows: Activity against gram-negative bacteria. The class given is cell-based.
For a further data set, the system named is Micrococcus luteus X186. It is filed as cell-based.
The next data set deals with Candida albicans, X657. In words: Antimicrobial activity, Candida albicans X657. To be noted: purified methanobactin. The class given is cell-based.
The test system of the next data set is gram-positive bacteria. In words: Bacteriocidal activity against gram-positive bacteria. The class given is cell-based, Staphylococci, Streptococci and Enterococci. The following applies: including vancomycin resistant and methicillin-resistant strains. How it is done:
(§1) Enterococcus fecalus was cultured aerobically on Brain Heart Infusion broth at 37° C., Staphyloccus aureus, Escherichia coli, X161, and Bacillus thuringiensis were cultured aerobically on Lauria-Burtani broth at 37° C., and Listeria monocytogenes was grown on Trypticase soy broth containing 0.6% yeast extract at 35° C. Minimum inhibitory concentrations were determined as previously described (A. F. Mendoca and S. J. Knabel. 1994. A novel strictly anaerobic recovery and enrichment system incorporating lithium for detection of heat-injured Listeria monocytogenes in pasteurized milk containing background microflora. Appl. Environ. Microbiol. 60: 4001–4008).

The next data set relates to Escherichia coli, X161. In words: Antimicrobial activity, Escherichia coli X161. To be noted: purified methanobactin. It is filed as cell-based. The protocol:
as §1

Another data set concerns washed cell suspensions. In words: Oxygen uptake activity of washed cell suspensions. It is filed as cell-based. The protocol: Oxygen uptake activity of washed cell suspensions was determined with a Clark oxygen electrode maintained at a constant water temperature of 37° C. Cell samples containing methanobactin were preincubated 5 minutes at 37° C. before the addition of substrate.

Molecules are shown by their SMILES. Converted amounts (≈) assume the structure as drawn.

With `CSCC[C@H](NC(=O)[C@@H]1CSSC[C@H](NC(=O)[C@H](CO)NC(=O)CN/C(S)=C2/N=C(C(=O)CC(C)C)OC2=O)C(=O)N[C@@H](Cc2ccc(O)cc2)C(=O)N2CCC[C@H]2C2=N/C(=C(\S)N[C@@H](CO)C(=O)N1)C(=O)O2)C(=O)O` [methanobactin, N-2-isopropylester-(4-thionyl-5-hydroxy-imidazole)-Gly^1-Ser^2-Cys^3-Tyr^4-pyrrolidine-(4-thionyl-5-hydroxy-imidazole)-Ser^5-Cys^6-Met^7], the solubility result in data set [1] is “very soluble”. Further, in the data set with gram-negative bacteria (methanobactin by itself), the “effectiveness against gram-negative bacteria” value is reported as “not been found to be effective”. Besides, the “activity against gram negative bacteria in combination with a metal chelator” value in the data set on gram-negative bacteria (with EDTA, at least about 1:1 methanobactin to EDTA) is “bacteriocidal”. Moreover, the minimum inhibitory concentration (MIC) with Micrococcus luteus X186 is 24 µg/mL (≈ 20.8 µM). The “Antimicrobial Activity” value with Candida albicans, X657 stood at 0; with Escherichia coli, X161, 0. In the data set with gram-positive bacteria, the “bacteriocidal activity against gram-positive bacteria” value was “bacteriocidal activity”. Also, the effect on respiration entry with washed cell suspensions (higher concentrations) was “respiratory inhibitor”; in the data set with washed cell suspensions (low concentrations) it was “respiratory uncoupler”.

In general, MIC refers to the lowest concentration that inhibits growth of the organism.
